One data set deals with LNCaP cells. Briefly: SRB in vitro chemosensitivity assay, LNCaP. The format is cell-based. Here is the method:
(§1) The cell lines were maintained as a monolayer at 37° C. and subcultured weekly. Culture medium was composed of RPMI 1640 supplemented with 10% fetal calf serum and 1% glutamine (Mascia Brunelli s.p.a., Milan, Italy). Cells were used in the exponential growth phase in all the experiments.
(§2) Compounds were dissolved in acetone or DMSO (AITES) ([…]) and stored at −20° C. The cell culture containing acetone at the highest concentration was used as the control.
(§3) Sulforhodamine B (SRB) assay was used according to the method by Skehan et al. (JNCI, 1990). Briefly, cells were collected by trypsinization, counted and plated at a density of 5,000 cells/well in 96-well flat-bottomed microtiter plates (100 μl of cell suspension/well). In the chemosensitivity assay, experiments were run in octuplicate, and each experiment was repeated three times. The optical density (OD) of cells was determined at a wavelength of 490 nm by a colorimetric plate reader.
(§4) If ODtreated is above ODzero, treatment has induced a cytostatic effect, whereas if ODtreated is below ODzero, cell killing has occurred. The ODzero depicts the cell number at the moment of drug addition, the ODcontrol reflects the cell number in untreated wells and the ODtreated reflects the cell number in treated wells on the day of the assay.
(§5) FIGS. 2-11 show the cytotoxic activity of the derivative compounds of the invention on the LNCaP and LNCaP-AR cell lines. The authors examined the antitumour activity of the compounds for which the synthesis is described above, in the hormone-sensitive prostate cancer cell line LNCaP and in its derivative cell line LNCaP-AR, expressing high level of AR and with hormone refractory prostate cancer (HRPC) features. The novel compounds were tested at the increasing concentrations of […], 0.2, 2.0, and 20.0 μM. The highest dose used was chosen on the basis of the clinically achievable peak plasma concentration reported in the literature for bicalutamide (Cockshott I D. Clin Pharmacokinet. 2004; 43(13): 855-78). After 144-hr exposure time the cytotoxic effect of the molecules was calculated according to the method of Monks et al. (Monks A, Scudiero D, Skehan P, et al. Feasibility of a high-flux anticancer drug screen using a diverse panel of cultured human tumor cell lines. J Natl Cancer Inst. 1991; 83: 757-66.)

The test system of a further data set is LNCaP-AR cells. Kind of data set: SRB in vitro chemosensitivity assay, LNCaP-AR. In kind it is cell-based. The conditions noted are these: for GI50: Homo sapiens, LNCaP/AR; for GI50 / cytotoxic effect (cytostatic / cytocidal), in words: 144 h; for LC50: LNCaP-AR cells, 144 h exposure; for LC50 / cytotoxic effect (cytostatic / cytocidal), in words: up to 20 μM; for cytotoxic effect (cytostatic / cytocidal), in words: LNCaP-AR. The protocol: as §1, §2, §3, §4, §5

The next data set concerns PC-3 cell line. Briefly: SRB cytotoxicity, PC-3. The format is cell-based, human. Conditions: PC-3 (no AR), 144 h, up to 20 μM. Here is the method:
(§6) FIGS. 16-25: cytotoxic effect of compounds (R)-XXIII-2, (R)-XXIII-3, (R)-XXIII-4, (R)-XXIII-5, (R)-XXIII-6, (R)-XXIII-7, (R)-XXIII-8, (R)-XXIII-9, (R)-XXIII-10, (R)-XXIV-9 on PC-3 and DU-145 cell lines at different concentration (0.02, 0.2, 2, 20 μM) after 144 h exposure. On the x-axis is reported the concentration, while on the y-axis is reported the inhibition of the net growth (% net growth).
as §3, §4

For a further data set, the system named is DU145 cell line. Kind of data set: SRB cytotoxicity, DU145. In kind it is cell-based, human. Conditions: DU145 (no AR), 144 h, up to 20 μM. The protocol: as §6, §3, §4
Data set [1] relates to human hepatoblastoma cell line HepG2. Briefly: Cytotoxic activity on HepG2 (hepato-toxicity). In kind it is cell-based. Conditions: HepG2, up to highest concentration tested. The protocol:
as §3, §4
FIG. 27-36 show the cytotoxic activity of the drugs on the human hepatoblastoma cell line HepG2. The authors evaluated in vitro the potential hepato-toxicity of some of the novel compounds on HepG2 cell line, a human hepatoblastoma cell line that retains the specialized function of normal hepatocytes [Knowles B B, Howe C C, Aden D P. Human hepatocellular carcinoma cell lines secretes the major plasma proteins and hepatitis B surface antigen. Science 1980, 209:497-499; Aden D P, Vogel A, Plortkin S, Damjanov I, Knowles B B. Controlled synthesis of HBS Ag in a differentiated human liver carcinoma-derived cell line. Nature, 1979, 282:615-616].

Data set [2] has as its target T1, human androgen receptor (hAR) (Homo sapiens, UniProt P10275).
T1 construct: expressed in transfected cells; host or cells: Cos-7
T1 sequence (P10275 1-920): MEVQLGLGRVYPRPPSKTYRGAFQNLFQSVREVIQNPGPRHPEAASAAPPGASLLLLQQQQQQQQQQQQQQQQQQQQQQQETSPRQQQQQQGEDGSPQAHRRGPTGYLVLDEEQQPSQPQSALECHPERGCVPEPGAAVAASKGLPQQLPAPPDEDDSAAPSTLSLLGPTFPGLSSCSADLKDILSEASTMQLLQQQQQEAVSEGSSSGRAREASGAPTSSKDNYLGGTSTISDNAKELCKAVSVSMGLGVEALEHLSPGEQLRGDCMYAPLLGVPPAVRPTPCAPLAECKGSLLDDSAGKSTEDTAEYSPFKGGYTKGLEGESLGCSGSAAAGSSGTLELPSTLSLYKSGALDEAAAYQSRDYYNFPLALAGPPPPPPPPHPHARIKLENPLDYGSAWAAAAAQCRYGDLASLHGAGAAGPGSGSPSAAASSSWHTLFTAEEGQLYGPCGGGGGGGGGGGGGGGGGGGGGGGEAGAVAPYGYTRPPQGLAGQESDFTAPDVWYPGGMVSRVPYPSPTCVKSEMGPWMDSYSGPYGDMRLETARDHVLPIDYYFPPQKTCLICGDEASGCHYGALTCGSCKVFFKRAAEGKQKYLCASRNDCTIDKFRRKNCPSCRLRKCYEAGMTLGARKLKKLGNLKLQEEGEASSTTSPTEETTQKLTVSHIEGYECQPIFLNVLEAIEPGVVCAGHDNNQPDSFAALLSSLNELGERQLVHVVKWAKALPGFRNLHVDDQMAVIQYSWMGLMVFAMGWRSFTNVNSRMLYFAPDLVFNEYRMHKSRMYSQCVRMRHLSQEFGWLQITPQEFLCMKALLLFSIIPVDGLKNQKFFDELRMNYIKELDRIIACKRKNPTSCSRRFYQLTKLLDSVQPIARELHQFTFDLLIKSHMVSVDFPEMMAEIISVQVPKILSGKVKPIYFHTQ
Briefly: hAR transactivation assay (ARE-luc) in Cos-7 cells. In kind it is cell-based. The conditions noted are these: for inhibition of R1881-induced AR transcriptional activation (antagonistic activity), in words: compound 10 μM with 10 nM R1881; for agonistic activity on AR transcription, in words: compound alone, 10 nM to 1 μM or 10 μM. From the text:
The cDNA coding hAR was cloned into the pSG5 expression vector as reported previously [Chang, C. S., J. Kokontis, and S. T. Liao 1988 Molecular cloning of human and rat complementary DNA encoding androgen receptors Science 240:324-326].
The 3416 construct (ARE-Luc), containing four copies of the wild-type slp-HRE2 (5′-TGGTCAgccAGTTCT-3′) was cloned in the NheI site in pTK-TATA-Luc [Verrijdt, G., E. Schoenmakers, A. Haelens, B. Peeters, G. Verhoeven, W. Rombauts, and F. Claessens 2000 Change of specificity mutations in androgen selective enhancers J. Biol. Chem. 275:12298-12305].
For androgen-stimulated transcriptional analysis, 32×10^4 Cos-7 cells were plated in phenol red-free DMEM containing 5% charcoal-stripped serum. After 48 h, the cells were transfected by Superfect (Qiagen) with 0.3 μg of 3416-pTK-TATA-Luc construct, together with 1.5 μg of either pSG5-empty plasmid or pSG5-hAR expressing plasmid. […] When indicated, the synthetic compounds were added alone to the cell medium. […] It was dissolved in 0.001% (final concentration) ethanol. Control cells were treated with the vehicle alone. Lysates were prepared and the luciferase activity was measured using a luciferase assay system (Promega). The results were corrected using CH110-expressed beta-galactosidase activity (Amersham Biosciences) and luciferase activity was expressed as fold induction. Results were obtained from two or three different experiments, each performed in duplicate. Mean and SEM are shown.

The mark [3] stands for this setting: LNCaP cells, 144 h exposure, up to 20 μM.

Entries after “also recorded” stand apart in the source; their conditions may differ. Read-outs that look alike come from different tables or passages of the source.

The GI50 is the concentration giving 50% growth inhibition. A lower GI50 goes with more potent growth inhibition. One may read the LC50 as the concentration lethal to half of the exposed cells or organisms.

For `N#Cc1ccc(NC(=O)[C@](O)(Cc2ccccc2)CS(=O)(=O)c2ccc(F)cc2)cc1C(F)(F)F` [(R)-XXIII-3], the GI50 turned out to be 1.8 µM in the data set on LNCaP cells (Homo sapiens, LNCaP, 144 h) and 6.2 µM in the data set with LNCaP-AR cells. The LC50 entry with LNCaP cells (setting [3]) and in the data set with LNCaP-AR cells was “n.r” throughout. In addition, the “cytotoxic effect (cytostatic / cytocidal), in words” value in the data set on LNCaP cells (LNCaP, 144 h, up to 20 μM) is given as “suppress completely the cell growth”; in the data set on LNCaP-AR cells it was “suppress completely the cell growth”. In addition, the “cytotoxic activity, in words” value in the data set with PC-3 cell line and with DU145 cell line was “negligible cytotoxic activity” in each case. Moreover, the “hepato-toxicity, in words” value in data set [1] is “did not display toxicity”. Further, the “inhibition of R1881-induced AR transcriptional activation (antagonistic activity), in words” value (from here on “inhibition”) in data set [2] was “A more robust inhibition”. Besides, in data set [2], the “agonistic activity on AR transcription, in words” value is recorded as “do not exhibit agonistic activity”.

On to `N#Cc1ccc(NC(=O)[C@](O)(Cc2ccc(F)cc2)CS(=O)(=O)c2ccc(F)cc2)cc1C(F)(F)F` [(R)-XXIII-4], for which the GI50 in the data set on LNCaP cells (Homo sapiens, LNCaP, 144 h) came out at 7 µM; in the data set with LNCaP-AR cells, 7.5 µM. Further, the LC50 entry with LNCaP cells (setting [3]) and in the data set on LNCaP-AR cells was “n.r” each time. Further, the “cytotoxic effect (cytostatic / cytocidal), in words” value is recorded as “suppress completely the cell growth” in the data set on LNCaP cells (LNCaP, 144 h, up to 20 μM) and “suppress completely the cell growth” in the data set on LNCaP-AR cells. Further, the “cytotoxic activity, in words” value with PC-3 cell line and in the data set with DU145 cell line was “negligible cytotoxic activity” in each case. Further, in data set [1], the “hepato-toxicity, in words” value is recorded as “did not display toxicity”. Moreover, the “inhibition” value in data set [2] is recorded as “A more pronounced inhibition”.

In the case of `N#Cc1ccc(NC(=O)[C@](O)(Cc2ccc(C(F)(F)F)cc2)CS(=O)(=O)c2ccc(F)cc2)cc1C(F)(F)F` [(R)-XXIII-5], the GI50 was determined as 2 µM in the data set on LNCaP cells (Homo sapiens, LNCaP, 144 h) and 1.9 µM in the data set on LNCaP-AR cells. In addition, the LC50 was 16.2 to 20 µM in the data set on LNCaP cells (Homo sapiens, LNCaP, 144 h, read-out: LC50, LNCaP cells, 144 h exposure, up to 20 μM); 16.2 µM in the data set with LNCaP cells (read-out: LC50, LNCaP cells, 144 h exposure, up to 20 μM); “n.r” in the data set on LNCaP-AR cells. Further, the “cytotoxic effect (cytostatic / cytocidal), in words” value in the data set with LNCaP cells (LNCaP, 144 h, up to 20 μM) was “cell killing activity”; with LNCaP-AR cells, “cell killing activity”. Also, the “cytotoxic activity, in words” value with PC-3 cell line (listed as (R)-XIII-5) and in the data set on DU145 cell line (listed as (R)-XIII-5) was “negligible cytotoxic activity; also recorded: reduced cytotoxic propriety” throughout. In data set [1], the “hepato-toxicity, in words” value is “did not display toxicity”. Besides, in data set [2], the “inhibition” value was “A more robust inhibition”. The “agonistic activity on AR transcription, in words” value in data set [2] is “do not exhibit agonistic activity”.

As for `N#Cc1ccc(NC(=O)[C@@](O)(CS(=O)(=O)c2ccc(F)cc2)c2ccccc2)cc1C(F)(F)F` [(R)-XXIII-8], the GI50 in the data set with LNCaP cells (Homo sapiens, LNCaP, 144 h) stood at 11.8 µM; in the data set on LNCaP-AR cells it was 11.6 µM. For the same compound, the LC50 result in the data set with LNCaP cells (setting [3]) and with LNCaP-AR cells was “n.r” each time. Moreover, the “cytotoxic effect (cytostatic / cytocidal), in words” value is reported as “suppress completely the cell growth” in the data set with LNCaP cells (LNCaP, 144 h, up to 20 μM) and “suppress completely the cell growth” in the data set on LNCaP-AR cells. Also, the “cytotoxic activity, in words” value in the data set on PC-3 cell line and in the data set with DU145 cell line was “negligible cytotoxic activity” in each case. The “hepato-toxicity, in words” value in data set [1] was “did not display toxicity”. Also, in data set [2], the “agonistic activity on AR transcription, in words” value is on record as “does not increase the transcriptional activity of AR”.

These data come from patent US8741951B2, “Non-steroidal compounds for androgen receptor modulation” (CNR—Consiglio Nazionale delle Ricerche, priority 2009, dated 2014).
